These are literature values, as cited in patent US20040062802A1, “Maximizing effectiveness of substances used to improve health and well being” (priority 1998, published 2004).

For one data set, the system named is HIV. The note with it: 200 mg AZT orally every 4 hours for 7 day periods alternating with ddC 0.03 mg/kg orally every 4 hours for 7 day periods; cited from earlier work.
The conditions of data set [1]: cited from earlier work.
Another data set relates to bone marrow cells. The note with it: mouse, in vivo; cited from earlier work.
The conditions of data set [2]: mean, N = 24, cited from earlier work; for AUC0-24 h: 1 mg daily 10 days then 2 mg daily 5 days.
Data set [3] has as its system male patients with clinical of BPH. The note with it: cited from earlier work; for I-PSS Endpoint / Qmax Endpoint: 24 weeks; for I-PSS Endpoint / Qmax Endpoint / I-PSS Baseline / Qmax Baseline: mean; for I-PSS Baseline / Qmax Baseline: after 2 week placebo run-in.
The subject of the next data set is mouse model. The conditions noted are these: drug received at the beginning of the sleep phase; cited from earlier work.
The conditions of data set [4]: cited from earlier work. The source holds these as a separate data set.
Where [5] appears, read: 800 mg group versus 400 mg group.

The structures appear in SMILES notation. Read-outs that look alike come from different tables or passages of the source.

As to `Cc1cn([C@H]2C[C@H](N=[N+]=[N-])[C@@H](CO)O2)c(=O)[nH]c1=O` [AZT], the “outcome of alternating regimen” value in the data set with HIV is “promising treatment regimen”. In addition, the “duration of the effect of AZT” value in data set [1] (400 mg group versus 800 mg group) is reported as “significantly longer”. In addition, in data set [1] (setting [5]), the “AZT withdrawn or dose reduced” value is “reduced more frequently” and the adverse reaction entry is “more frequently observed”. Further, the “toxicity (peripheral blood parameters, proportion of bone marrow cells arrested at the S-phase gate)” value in the data set on bone marrow cells is given as “significantly less toxic”.

One may read the Cmax as the maximum level reached in the sampled fluid or tissue. As a reminder, the Tmax is the time from dosing to the highest level. Take `COc1cc2nc(N3CCN(C(=O)C4COc5ccccc5O4)CC3)nc(N)c2cc1OC` (stereo not shown) [Doxazosin]: in data set [2] (evening dosing (8 pm)), the AUC0-24 h was 253.66 ng·h/mL, the Cmax is 15.76 ng/mL, the T1/2 is on record as 18.77 h and the time to peak (Tmax) was 5.60 h. For the same molecule, in data set [2] (morning dosing (8 am)), the AUC0-24 h is 227.90 ng·h/mL, the maximum concentration (Cmax) was 16.98 ng/mL, the T1/2 was 19.52 h and the Tmax is listed as 3.46 h. Further, the “clinical efficacy versus placebo” value in data set [3] (at 6 weeks and endpoint) is “significantly differed from placebo”. Also, in data set [3] (evening (8 pm) dosing), the “I-PSS Endpoint” value was 11.7, the “Qmax Endpoint” value was 12.30 mL/s, the “I-PSS Mean Change” value is −6.7 and the “I-PSS Responders” value is recorded as 62.6. Moreover, in data set [3] (evening (8 pm) dosing), the “Qmax Mean Change” value was 1.94 mL/s and the “Qmax Responders” value is given as 28.4. In data set [3] (evening (8 pm) group), the “I-PSS Baseline” value is on record as 18.2 and the “Qmax Baseline” value is 10.49 mL/s. In addition, in data set [3] (morning (8 am) dosing), the “I-PSS Endpoint” value was 11.0, the “Qmax Endpoint” value is 11.84 mL/s, the “I-PSS Mean Change” value is −6.9 and the “I-PSS Responders” value is 57.4. Moreover, in data set [3] (morning (8 am) dosing), the “Qmax Mean Change” value is 1.51 mL/s and the “Qmax Responders” value is listed as 29.7. Further, in data set [3] (morning (8 am) group), the “I-PSS Baseline” value is recorded as 18.5 and the “Qmax Baseline” value was 10.17 mL/s.

As to `N.N.O=C([O-])C1(C(=O)[O-])CCC1.[Pt+2]` [carboplatin, Carboplatin], in the data set on mouse model, the marrow toxicity entry was “lowest marrow toxicity” and the mean survival time entry is “longest mean survival time”.

`COC(=O)C(c1ccccc1)C1CCCCN1` (stereo not shown) [methylphenidate]: the plasma profile result in data set [4] (ADD, conventional 10 mg at 7 am and 10 mg at 12 pm, FIG. I solid line) is “high dosages of the drug would be present in the body throughout the afternoon and early evening”; in data set [4] (narcolepsy, conventional 20 mg at 7 am, 10 mg at 12 pm and 10 mg at 5 pm, FIG. II solid line), “lower dosages of the drug are present in the patient during the morning hours”.
